# Laboratory results from US5364867A, “4-phenylpiperdine agents for treating cns disorders” (Sterling Winthrop Inc., priority 1992, dated 1994).
# Where a name gives a salt, the structure may show the parent alone.
# Molecular target: sigma receptors
# Experiment: sigma receptor binding, [3H]di(2-tolyl)-guanidine (DTG) assay, guinea pig brain membranes
# Conditions: [3H]DTG approximately 4 nM; male Hartley guinea pig brain membranes; 25° C. for 90 min; nonspecific binding 10 μM haloperidol
# Procedure: Brain tissue was prepared from male Hartley guinea pigs (Hazelton Labs, Denver, Pa.) which were anesthetized with CO2 and sacrificed by decapitation. All animal care and use procedures were in accord with the "Guide for the Care and Use of Laboratory Animals" (NIH Publ. No. 86-23, 1985). Homogenization was performed in 10 volumes (wt/vol) of 0.32M sucrose with a Brinkmann Polytron at setting 5, 30 sec. The homogenate was centrifuged at 900×g for 10 min at 4° C., and the supernatant was collected and centrifuged at 22,000×g for 20 min at 4° C. The pellet was resuspended in 10 volumes of Tris-HCl buffer (50 mM, pH 7.4), incubated at 37° C. for 30 min and centrifuged at 22,000×g for 20 min at 4° C. Following this, the pellet was resuspended in Tris buffer and frozen in 5-10 mL aliquots corresponding to a tissue concentration of 100 mg/mL at -70° C. Binding characteristics of the membranes were stable for at least one month when stored at -70° C.
# On the day of the assay, membrane aliquots were thawed, resuspended in fresh Tris buffer and stored on ice until use. Each assay tube contained 100 μL of [^3 H](+)pentazocine at a final concentration of approximately 0.5 nM, [^3 H]di(2-tolyl)-guanidine (DTG) at a final concentration of approximately 4 nM, 100 μL of various concentrations of the compounds of interest, 500 μL of the tissue suspension and 300 μL of buffer to a final assay volume of 1 mL and a final tissue concentration of approximately 8 mg/tube, corresponding to approximately 0.15 mg protein/tube. Nonspecific binding was defined by addition of a final concentration of 1 μM haloperidol to blank tubes for the [^3 H](+)pentazocine assay or by addition at a final concentration of 10 μM haloperidol to blank tubes for [^3 H] DTG assay. All tubes were incubated at 37° C. for 150 min ([^3 H](+)pentazocine) or at 25° C. for 90 min ([^3 H]DTG) before termination of the reaction by filtration over Whatman GF/B glass fiber filters that were presoaked in a solution of 0.5% polyethyleneimine for at lease 1 hr prior to use. Filters were washed with three 4 mL volumes of cold Tris-HCl buffer.
# Following addition of scintillation cocktail, samples were allowed to equilibrate for at least 4 hr. The amount of bound radioactivity was determined by liquid scintillation spectrometry using a Beckman LS 5000 TA liquid scintillation counter with an efficiency for tritium of approximately 60%. The results are reported as a percent (%) inhibit ion of binding at 10 μM.
# Data obtained on the compounds in the di(2-tolyl)guanidine (DTG) and d-pentazocine (+Pent) assays are expressed as a Ki value in nM. The number of determinations follow this value in parentheses.
row,Compound,Ki [nM]
1,"O=C(CCc1ccccc1)N1CCC(O)(c2ccccc2)CC1 [Example 1, 4-Phenyl-4-hyroxy-1-(3-phenylpropionyl) piperidine]",34400
2,"O=C(O)C1(c2ccccc2)CCN(CCCc2ccccc2)CC1 [Example 2a, 4-phenyl-1-(3-phenylpropyl)-4-piperidinecarboxylic acid]",16.4
3,"O=C(N1CCCC1)C1(c2ccccc2)CCN(CCCc2ccccc2)CC1 [Example 2b, 4-Phenyl-1-(3-phenylpropyl)-4-(1-pyrrolidinylcarbonyl)piperidine]",116
4,"COc1cccc(C2CCN(CCCc3ccccc3)CC2)c1 [Example 3a, 4-(3-methoxyphenyl)-1-(3-phenylpropyl)piperidine hydrochloride]",2.21
5,"Oc1cccc(C2CCN(CCCc3ccccc3)CC2)c1 [Example 3b, 4-(3-hydroxyphenyl)-1-(3-phenylpropyl)piperidine hydrochloride]",0.65
6,"O=C(c1ccccc1)C1(c2ccccc2)CCN(CCCc2ccccc2)CC1 [Example 4, 4-benzoyl-4-phenyl-1-(3-phenylpropyl)piperidine]",22.1
7,"CCC(=O)C1(c2ccccc2)CCN(CCCc2ccccc2)CC1 [Example 5, 4-Phenyl-1-(3-phenylpropyl)-4-propionylpiperidine]",9.1
8,"CCC(=O)OC1(c2ccccc2)CCN(CCC(=NO)c2ccccc2)CC1 [Example 6, 4-Phenyl-1-(3-oximino-3-phenylpropyl)-4-propionoxypiperidine]",589
9,"CCOC(=O)C1(c2ccccc2)CCN(CCCc2ccccc2)CC1 [Example 7, Ethyl 4-Phenyl-1-(3-phenylpropyl)-4-piperidinecarboxylate]",88.9
